Measurements from US20230242513A1, “NOVEL HETEROARYL-SUBSTITUTED PYRAZINE DERIVATIVES AS PESTICIDES” (Bayer Animal Health GmbH, priority 2020, published 2023).

Columns and labels:
Format in all cases: in vivo
[1] = test system: Rhipicephalus sanguineus (adult brown dog ticks); test: Rhipicephalus sanguineus in-vitro contact test, adult brown dog ticks; settings: after 48 hours
Description: Rhipicephalus sanguineus—In-Vitro Contact Tests with Adult Brown Dog Ticks
(§1) 9 mg compound is solved in 1 mL acetone and diluted with acetone to the desired concentration. 250 μL of the test solution is filled in 25 mL glass test tubes and homogeneously distributed on the inner walls by rotation and tilting on a shaking device (2 h at 30 rpm). With a compound concentration of 900 ppm, an inner surface of 44.7 cm^2 and a homogeneous distribution, a dose of 5 μg/cm^2 is achieved.
(§2) After the solvent has evaporated, each test tube is filled with 5-10 adult brown dog ticks (Rhipicephalus sanguineus), closed with a perforated lid and incubated in a lying position at room temperature and relative humidity. After 48 hours efficacy is determined. The ticks are patted on the ground of the tubes and are incubated on a heating plate at 45-50° C. for at most 5 minutes. Immotile or uncoordinated moving ticks, which are not able to escape the heat by climbing upwards, are marked as dead or moribund.
An efficacy of 100% means all ticks are dead or moribund; 0% means no ticks are dead or moribund.

[2] = test system: Nezara viridula (southern green stink bug larvae); test: Nezara viridula spray test; settings: 96 h, application rate 500 g/ha, barley plants, after 4 days
Description: Nezara viridula—Spray Test
(§3) Solvent: 78.0 parts by weight of acetone • • 1.5 parts by weight of dimethylformamide
(§4) Emulsifier: alkylarylpolyglycol ether
(§5) To produce a suitable preparation of active compound, 1 part by weight of active compound is mixed with the stated amount of solvent, and the concentrate is diluted with water, containing an emulsifier concentration of 1000 ppm, to the desired concentration. Further test concentrations are prepared by dilution with emulsifier containing water.
Barley plants (Hordeum vulgare) are sprayed with a test solution containing the desired concentration of the active ingredient and are infested with larvae of the southern green stink bug (Nezara viridula).
After 4 days mortality in % is determined. 100% means all the stink bugs have been killed; 0% means none of the stink bugs have been killed.

[3] = test system: Myzus persicae (green peach aphid); test: Myzus persicae oral test; settings: 120 h, application rate 20 ppm, after 5 days
Description: Solvent: 100 parts by weight acetone
To produce a suitable preparation of active compound, 1 part by weight of active compound is mixed with the stated amount of solvent, and the concentrate is diluted with water to the desired concentration.
50 μL compound solution is filled in microtiter plates and 150 μL IPL41 insect medium (33%+15% sugar) is added to obtain a total volume of 200 μL per well. Afterwards the plates are sealed with parafilm through which a mixed population of the green peach aphid (Myzus persicae) can suck on the compound preparation.
After 5 days mortality in % is determined. 100% means all aphids have been killed and 0% means none of the aphids have been killed.

[4] = test system: Diabrotica balteata (banded cucumber beetle larvae); test: Diabrotica balteata spray test; settings: 168 h, wheat seeds, after 7 days, read-out: efficacy (seedlings grown up like untreated, uninfected control); for pest or weed control at 32 µg/disc, 100 g/ha: application rate 100 g/ha (=32 μg/well); for pest or weed control at 160 µg/disc, 500 g/ha: application rate 500 g/ha (=160 μg/well)
Description: Diabrotica balteata—Spray Test
as §3, §4, §5
Soaked wheat seeds (Triticum aestivum) are placed in a multiple well plate filled with agar and some water and are incubated for 1 day to germinate (5 seeds per well). The germinated wheat seeds are sprayed with a test solution containing the desired concentration of the active ingredient. Afterwards each unit is infected with 10-20 larvae of the banded cucumber beetle (Diabrotica balteata).
After 7 days efficacy in % is determined. 100% means all the seedlings have grown up like in the untreated, uninfected control; 0% means none of the seedlings have grown.

[5] = test system: Rhipicephalus (Boophilus) microplus larvae (strain Parkhurst, resistant against synthetic pyrethroids); test: Rhipicephalus (Boophilus) microplus in-vitro contact test, larval cattle tick; settings: application rate 5 μg/cm^2 (=500 g/ha); after 48 hours
Description: Rhipicephalus (Boophilus) microplus—In-Vitro Contact Tests Larval Cattle Tick (Strain Parkhurst, Resistant Against Synthetic Pyrethroids)
as §1, with “[…]” for “μg/cm^2”
After the solvent has evaporated, each test tube is filled with 20-50 cattle tick larvae (Rhipicephalus microplus), closed with a perforated lid and incubated in a horizontal position at 85% relative humidity and 27° C. in an incubator. After 48 hours efficacy is determined. The larvae are patted on the ground of the tubes and negative geotactic behavior is recorded.
An efficacy of 100% means all larvae are dead or moribund; 0% means no larvae are dead or moribund.

[6] = test system: Spodoptera frugiperda (fall armyworm larvae); test: Spodoptera frugiperda spray test; settings: in Zea mays, 168 h
Description: Spodoptera frugiperda—Spray Test
Solvent: 78.0 parts by weight acetone • 1.5 parts by weight dimethylformamide
as §4
as §5, with “solvents” for “solvent,”, “and” for “and the concentrate”
Maize (Zea mays) leaf sections are sprayed with a preparation of the active ingredient of the desired concentration. Once dry, the leaf sections are infested with fall armyworm larvae (Spodoptera frugiperda).
After 7 days mortality in % is determined. 100% means all caterpillars have been killed and 0% means none of the caterpillars have been killed.

[7] = test system: Nilaparvata lugens (brown planthopper); test: Nilaparvata lugens spray test; settings: 96 h, application rate 500 g/ha, rice plants, after 4 days
Description: Nilaparvata lugens—Spray Test
as §3, §4
as §5, with “solvents” for “solvent,”, “and” for “and the concentrate”
Rice plants (Oryza sativa) are sprayed with a preparation of the active ingredient of the desired concentration and the plants are infested with the brown planthopper (Nilaparvata lugens).
After 4 days mortality in % is determined. 100% means all planthoppers have been killed and 0% means none of the planthoppers have been killed.

[8] = test system: Ctenocephalides felis (adult cat fleas); test: Ctenocephalides felis in-vitro contact test, adult cat flea; settings: after 48 hours
Description: Ctenocephalides felis—In-Vitro Contact Tests Adult Cat Flea
as §1
as §2, with “cat fleas (Ctenocephalides felis),” for “brown dog ticks (Rhipicephalus sanguineus),”, “fleas” for “ticks”, “fleas,” for “ticks,”
An efficacy of 100% means all fleas are dead or moribund; 0% means no fleas are dead or moribund.

[9] = application rate 5 μg/cm^2 (=500 g/ha)
[10] = application rate 1 μg/cm^2 (=100 g/ha)

## CC(NC(=O)c1cc(Cl)cc(S(C)(=O)=O)c1)c1nccnc1-n1nccn1 (racemic) [Example I-1, (rac)-3-Chloro-5-(methylsulfonyl)-N-{1-[3-(2H-1,2,3-triazol-2-yl)pyrazin-2-yl]ethyl}benzamide]
[1]; [9]
  efficacy (ticks dead or moribund): 100%
[2]
  mortality at 500 g/ha: 100%
[3]
  mortality at 20 ppm: 100%
[4]
  pest or weed control at 32 µg/disc, 100 g/ha: 100%
  pest or weed control at 160 µg/disc, 500 g/ha: 100%
[5]
  efficacy (larvae dead or moribund): 90%

## Cc1ncn(-c2nccnc2C(C)NC(=O)c2cc(Br)cc(Br)c2)n1 (racemic) [Example I-2, 3,5-Dibromo-N-{(rac)-1-[3-(3-methyl-1H-1,2,4-triazol-1-yl)pyrazin-2-yl]ethyl}benzamide]
[4]
  pest or weed control at 32 µg/disc, 100 g/ha: 100%

## Cc1ncn(-c2nccnc2C(C)NC(=O)c2cc(C(F)(F)F)cc(C(F)(F)F)c2)n1 (racemic) [Example I-3, (rac)-N-{1-[3-(3-Methyl-1H-1,2,4-triazol-1-yl)pyrazin-2-yl]ethyl}-3,5-bis(trifluoromethyl)benzamide]
[6]
  mortality at 100 g/ha: 100%
[7]
  mortality at 500 g/ha: 90%

## Cc1ncn(-c2nccnc2C(C)NC(=O)c2cc(Cl)cc(S(C)(=O)=O)c2)n1 (racemic) [Example I-4, (rac)-3-Chloro-5-(methanesulfonyl)-N-{1-[3-(3-methyl-1H-1,2,4-triazol-1-yl)pyrazin-2-yl]ethyl}benzamide]
[2]
  mortality at 500 g/ha: 70%
[4]
  pest or weed control at 32 µg/disc, 100 g/ha: 100%

## CC(NC(=O)c1cc(C(F)(F)F)cc(C(F)(F)F)c1)c1nccnc1-n1cncn1 (racemic) [Example I-5, (rac)-N-(1-[3-(1H-1,2,4-Triazol-1-yl)pyrazin-2-yl]ethyl)-3,5-bis(trifluoromethyl)benzamide]
[6]
  mortality at 20 g/ha: 83%
[7]
  mortality at 500 g/ha: 100%
[4]
  pest or weed control at 32 µg/disc, 100 g/ha: 100%

## CC(NC(=O)c1cc(Cl)cc(S(C)(=O)=O)c1)c1nccnc1-n1cncn1 (racemic) [Example I-6, (rac)-3-Chloro-5-(methanesulfonyl)-N-{1-[3-(1H-1,2,4-triazol-1-yl)pyrazin-2-yl]ethyl}benzamide]
[2]
  mortality at 500 g/ha: 90%
[7]
  mortality at 500 g/ha: 100%
[4]
  pest or weed control at 32 µg/disc, 100 g/ha: 100%

## CC(NC(=O)c1cc(Br)cc(Br)c1)c1nccnc1-n1cncn1 (racemic) [Example I-7, (rac)-3,5-Dibromo-N-{1-[3-(1H-1,2,4-triazol-1-yl)pyrazin-2-yl]ethyl}benzamide]
[4]
  pest or weed control at 32 µg/disc, 100 g/ha: 100%

## Cc1ncn(-c2nccnc2C(C)NC(=O)c2cc(Cl)cc(OC(F)(F)F)c2)n1 (racemic) [Example I-9, (rac)-3-Chloro-N-{1-[3-(3-methyl-1H-1,2,4-triazol-1-yl)pyrazin-2-yl]ethyl}-5-(trifluoromethoxy)benzamide]
[6]
  mortality at 100 g/ha: 100%
[4]
  pest or weed control at 32 µg/disc, 100 g/ha: 100%

## CC(NC(=O)c1cc(C(F)(F)F)cc(C(F)(F)F)c1)c1nccnc1-c1cn(C)nn1 (racemic) [Example I-10, (rac)-N-{1-[3-(1-Methyl-1H-1,2,3-triazol-4-yl)pyrazin-2-yl]ethyl}-3,5-bis(trifluoromethyl)benz amide]
[4]
  pest or weed control at 32 µg/disc, 100 g/ha: 100%
[5]
  efficacy (larvae dead or moribund): 100%

## CC(NC(=O)c1cc(Cl)cc(OC(F)(F)F)c1)c1nccnc1-c1cn(C)nn1 (racemic) [Example I-11, (rac)-3-Chloro-N-{1-[3-(1-methyl-1H-1,2,3-triazol-4-yl)pyrazin-2-yl]ethyl}-5-(trifluoromethoxy)benzamide]
[4]
  pest or weed control at 32 µg/disc, 100 g/ha: 100%

## CC(NC(=O)c1cc(C(F)(F)F)cc(C(F)(F)F)c1)c1nccnc1-c1cn(-c2ccn(C)n2)nn1 (racemic) [Example I-12, (rac)-N-1-{3-[1-(1-Methyl-1H-pyrazol-3-yl)-1H-1,2,3-triazol-4-yl]pyrazin-2-yl}ethyl]-3,5-bis(trifluoromethyl)benzamide]
[6]
  mortality at 100 g/ha: 100%
[5]
  efficacy (larvae dead or moribund): 90%

## CC(NC(=O)c1cc(Br)cc(Br)c1)c1nccnc1-c1cn(C)nn1 (racemic) [Example I-15, (rac)-3,5-Dibromo-N-{1-[3-(1-methyl-1H-1,2,3-triazol-4-yl)pyrazin-2-yl]ethyl}benzamide]
[4]
  pest or weed control at 32 µg/disc, 100 g/ha: 100%

## CCN(C)C(=O)c1ncn(-c2nccnc2C(C)NC(=O)c2cc(C(F)(F)F)cc(C(F)(F)F)c2)n1 (racemic) [Example I-21, (rac)-1-(3-{1-[3,5-Bis(trifluoromethyl)benzamido]ethyl}pyrazin-2-yl)-N-ethyl-N-methyl-1H-1,2,4-triazole-3-carboxamide]
[1]; [10]
  efficacy (ticks dead or moribund): 80%
[8]; [10]
  efficacy (fleas dead or moribund): 80%
[5]
  efficacy (larvae dead or moribund): 100%

## CCN(C)C(=O)c1ncn(-c2nccnc2C(C)NC(=O)c2cc(Cl)cc(S(C)(=O)=O)c2)n1 (racemic) [Example I-25, (rac)-1-(3-{1-[3-Chloro-5-(methanesulfonyl)benzamido]ethyl}pyrazin-2-yl)-N-ethyl-N-methyl-1H-1,2,4-triazole-3-carboxamide]
[6]
  mortality at 100 g/ha: 100%

## CC(NC(=O)c1cc(C(F)(F)F)cc(C(F)(F)F)c1)c1nccnc1-n1cnc(C#N)n1 (racemic) [Example I-27, (rac)-N-{1-[3-(3-Cyano-1H-1,2,4-triazol-1-yl)pyrazin-2-yl]ethyl}-3,5-bis(trifluoromethyl)benzamide]
[5]
  efficacy (larvae dead or moribund): 100%

## CCOC(=O)Cn1cc(-c2nccnc2C(C)NC(=O)c2cc(C(F)(F)F)cc(C(F)(F)F)c2)nn1 (racemic) [Example I-28, (rac)-Ethyl [4-(3-{1-[3,5-bis(trifluoromethyl)benzamido]ethyl}pyrazin-2-yl)-1H-1,2,3-triazol-1-yl]acetate]
[8]; [9]
  efficacy (fleas dead or moribund): 100%
[4]
  pest or weed control at 160 µg/disc, 500 g/ha: 100%
[5]
  efficacy (larvae dead or moribund): 100%
